{
  "source": "paper PMC12298104",
  "about": "“mRNA Expression of Two Colon Enzymes in Pre-Pubertal Gilts During a 42-Day Exposure to Zearalenone” (Toxins, 2025)",
  "key": {"[1]": {"assay": "Concentrations of ZEN, α-ZEL and β-ZEL in colon tissue (immunoaffinity extraction, LC-MS/MS)", "assay_type": "in vivo, pre-pubertal gilts", "conditions": "for ZEN metabolites in the distal colon: gilts given 40 μg ZEN/kg BW orally daily, 42 days; for difference in mean ZEN levels between ascending and descending colon / difference in ZEN concentration in the descending colon: p ≤ 0.01", "description": "(§1) Group E gilts were given ZEN orally at a dose of 40 μg ZEN/kg BW (Table 1). At the time of designing the experiment, the above value was equivalent to the no-observed-adverse-effect level (NOAEL) stipulated in the EFSA guidelines, which is 10 times higher than the current dose. Animals from group C received a placebo. The experiment lasted 42 days. The ZEN dose was adjusted to the BW of group E animals. Zearalenone was administered in enteric-coated capsules to avoid problems with uneven food intake. On each day of the experiment, the mycotoxin was administered orally before the morning feeding. Feed was used as a vector. Group C gilts received a placebo, i.e., the same gastro-resistant capsules with the vector, but without ZEN. Zearalenone was dissolved in 500 μL of 96% C2H5OH (96% ethyl, SWW 2442-90, Polskie Odczynniki Chemiczne SA, Gliwice, Poland) to obtain the dose needed (adjusted to BW). The obtained solutions were stored at a temperature of 20 °C for 12 h. Pre-pubertal gilts were weighed once a week to adjust ZEN doses to the needs of each animal. Three gilts from each experiment group were killed on day 7 (1st week of exposure), 14 (2nd week of exposure), 21 (3rd week of exposure), 28 (4th week of exposure), 35 (5th week of exposure), and 42 (6th week of exposure). On each of the above dates, the animals were euthanized by intravenous administration of sodium pentobarbital (Fatro, Ozzano Emilia, BO, Italy). Tissue samples (approx. 1.0 cm × 1.5 cm) from the middle parts of both examined colon sections were collected immediately after cardiac arrest. Samples were washed with phosphate buffer and prepared for toxicological analyses and gene expression assessment. Laboratory analyses were conducted within one month after tissue sampling.\nZearalenone, α-ZEL, and β-ZEL were extracted from tissue samples using immunoaffinity columns (Zearala-TestTM Zearalenone Testing System, G1012, VICAM, Watertown, MA, USA) according to the manufacturer’s instructions. The eluates were placed in a water bath at 50 °C and evaporated in nitrogen stream. Until chromatographic analysis, the dry residues were stored at −20 °C. The results were verified by mass spectrometry and the procedure was monitored using internal standards.\nZEN, α-ZEL, and β-ZEL tissue concentrations were determined using an Agilent 1260 liquid chromatograph (LC) and an Agilent 6470 mass spectrometer (MS). The prepared samples were analyzed using an Agilent ZORBAX high-resolution HPLC column (Agilent Eclipse Plus C18; 2.1 × 50 mm, 1.8 µm) in a gradient elution program. The mobile phase consisted of 0.1% (v/v) formic acid dissolved in water (solvent A) and 0.1% (v/v) formic acid dissolved in acetonitrile (solvent B). The gradient program began with 20% B, which was increased to 100% B after 4.0 min and decreased to 20% B after 0.1 min.\nMycotoxins were quantified using external standards and were expressed in ppb (ng/mL). Calibration standards are fitted to the detector to eliminate detector influences that may reduce test sensitivity. Following the procedure described for the remaining samples, calibration standards were dissolved in the matrix samples (matrix-matched calibration). The material for the preparation of calibration standards was free from mycotoxins. The signal-to-noise ratio (3:1) was […] for ZEN, α-ZEL, and β-ZEL. The LOQ was defined as three times the LOD.\nElectrospray ionization (ESI) mass spectrometry was performed in negative ion mode. MS/MS indices were optimized for all compounds. Using a six-level calibration curve, linearity was assessed.\nThe results were statistically processed at the Department of Discrete Mathematics and Theoretical Computer Science, Faculty of Mathematics and Computer Science of the University of Warmia and Mazury in Olsztyn. […]"}, "[2]": {"system": "CYP1A1 gene", "assay": "CYP1A1 mRNA expression in the ascending and descending colon (qPCR)", "assay_type": "in vivo, pre-pubertal gilts", "design": "difference in CYP1A1 gene expression between groups C and E: scale not given here", "conditions": "for mean CYP1A1 gene expression during the entire experiment (expression ratio vs control at start = 1.00): group E", "description": "as §1\n(§2) Colon tissue samples were collected immediately after cardiac arrest. According to the manufacturer’s instructions (Sigma-Aldrich, Taufkirchen, Germany), samples were stored in RNAlater solution.\n(§3) According to the manufacturer’s protocol, total RNA was extracted from tissues preserved in RNAlater (ca. 20 mg per sample; […] in each group) using the Total RNA Mini kit (A&A Biotechnology, Gdynia, Poland). RNA samples were incubated in ribonuclease-free DNAse I (Roche Diagnostics, Mannheim, Germany) to prevent contamination with genomic DNA. Overall RNA quality and purity from all samples were assessed using a BioPhotometer (Eppendorf, Germany) and the results were used for cDNA synthesis using the RevertAid™ First Strand cDNA Synthesis Kit (Fermentas, Burlington, ON, Canada). According to the manufacturer’s protocol, the reaction was performed using a cDNA synthesis reaction mixture for each sample, which consisted of 1 µg of total RNA and 0.5 µg of oligo (dT)18 primers. The first synthesized cDNA chain was stored at −20 °C pending further analysis.\nReal-time PCR primers for target mRNA were designed using the Primer-BLAST tool based on reference species (Table 4). Real-time PCR was performed on an ABI 7500 Real-Time PCR system (Applied Biosystems, Foster City, CA, USA) in single plex mode; further procedures were performed according to the manufacturer’s instructions. Each PCR reaction tube contained 10 μL of the FastStart SYBR Green Master ROX mix (Roche Diagnostics), 0.25–0.5 μM of each primer (forward and reverse; Table 4), and 1 μL of the previously synthesized cDNA as a template, supplemented with PCR-grade H2O to a final volume of 20 μL. The reaction was performed under the following standard thermal conditions: 95 °C for 10 min, followed by 45 cycles of 95 °C for 15 s and 60 °C for 1 min. Negative water controls (NTCs) were included to rule out cross-contamination. The quality of PCR products was verified by melting curve analysis, followed by agarose gel electrophoresis. The specificity of the designed primer pairs was confirmed by sequencing the obtained PCR products ([…]). […]"}, "[3]": {"system": "GSTπ1 gene", "assay": "GSTπ1 mRNA expression in the ascending and descending colon (qPCR)", "assay_type": "in vivo, pre-pubertal gilts", "conditions": "for difference in GSTπ1 gene expression between groups C and E: p ≤ 0.05; for average expression of the GSTπ1 gene during the entire experiment (expression ratio vs control at start = 1.00): group E", "description": "as §1, §2, §3\nReal-time PCR primers for target mRNA were designed using the Primer-BLAST tool based on reference species (Table 4). Real-time PCR was performed on an ABI 7500 Real-Time PCR system (Applied Biosystems, Foster City, CA, USA) in single plex mode; further procedures were performed according to the manufacturer’s instructions. Each PCR reaction tube contained 10 μL of the FastStart SYBR Green Master ROX mix (Roche Diagnostics), 0.25–0.5 μM of each primer (forward and reverse; Table 4), and 1 μL of the previously synthesized cDNA as a template, supplemented with PCR-grade H2O to a final volume of 20 μL. […]"}, "[4]": {"assay": "Clinical signs during the 42-day exposure", "assay_type": "in vivo, pre-pubertal gilts", "conditions": "40 μg ZEN/kg BW orally daily for 42 days", "description": "as §1, with “On each of the above dates, the animals were euthanized by intravenous administration of sodium pentobarbital (Fatro, Ozzano Emilia, BO, Italy). Tissue samples (approx. 1.0 cm × 1.5 cm) from the middle parts of both examined colon sections were collected immediately after cardiac arrest. Samples were washed with phosphate buffer and prepared for toxicological analyses and gene expression assessment. Laboratory analyses were conducted within one month after tissue sampling.” left out"}, "[5]": {"conditions": "cited from earlier work"}, "[6]": {"design": "method as in PMID 25283475", "conditions": "value at the time of designing the experiment; 10 times higher than the current dose; cited from earlier work"}},
  "data": [
    {"smiles": "C[C@H]1CCC[C@H](O)CCC/C=C/c2cc(O)cc(O)c2C(=O)O1", "note": "[α-ZEL, α-zearalenol]", "values": [
      {"measurement": "ZEN metabolites in the distal colon", "setting": "[1]", "result": "no ZEN metabolites (α-ZEL and β-ZEL) were found"}
    ]},
    {"smiles": "C[C@H]1CCC[C@@H](O)CCC/C=C/c2cc(O)cc(O)c2C(=O)O1", "note": "[β-ZEL, β-zearalenol]", "values": [
      {"measurement": "ZEN metabolites in the distal colon", "setting": "[1]", "result": "no ZEN metabolites (α-ZEL and β-ZEL) were found"}
    ]},
    {"smiles": "C[C@H]1CCCC(=O)CCC/C=C/c2cc(O)cc(O)c2C(=O)O1", "note": "[ZEN, Zearalenone]", "values": [
      {"measurement": "ZEN strength in the ascending colon, on average", "setting": "[1]; 40 μg ZEN/kg BW orally daily, average over each week of exposure (weeks 1-6)", "result": 2.09, "unit": "ng ZEN/g"},
      {"measurement": "mean ZEN strength in the descending colon, on average", "setting": "[1]; 40 μg ZEN/kg BW orally daily, first three weeks of exposure", "result": 6.4, "unit": "ng ZEN/g"},
      {"measurement": "concentration at 4 week of exposure", "setting": "[1]; female, pig, descending colon tissue, po, 40 μg ZEN/kg BW orally daily, week 4", "result": 205, "unit": "ng/g"},
      {"measurement": "concentration at 5 week of exposure", "setting": "[1]; female, pig, descending colon tissue, po, 40 μg ZEN/kg BW orally daily, week 5", "result": 177, "unit": "ng/g"},
      {"measurement": "concentration at 6 week of exposure", "setting": "[1]; female, pig, descending colon tissue, po, 40 μg ZEN/kg BW orally daily, week 6", "result": 112, "unit": "ng/g"},
      {"measurement": "difference in mean ZEN levels between ascending and descending colon", "setting": "[1]; week 4", "result": 200.33, "unit": "ng ZEN/g"},
      {"measurement": "difference in ZEN concentration in the descending colon", "setting": "[1]; week 4 vs week 1", "result": 200.31, "unit": "ng ZEN/g"},
      {"measurement": "difference in ZEN concentration in the descending colon", "setting": "[1]; week 4 vs week 2", "result": 198.21, "unit": "ng ZEN/g"},
      {"measurement": "difference in ZEN concentration in the descending colon", "setting": "[1]; week 4 vs week 3", "result": 197.44, "unit": "ng ZEN/g"},
      {"measurement": "difference in mean ZEN levels between ascending and descending colon", "setting": "[1]; week 5", "result": 173.61, "unit": "ng ZEN/g"},
      {"measurement": "difference in ZEN concentration in the descending colon", "setting": "[1]; week 5 vs week 1", "result": 172.31, "unit": "ng ZEN/g"},
      {"measurement": "difference in ZEN concentration in the descending colon", "setting": "[1]; week 5 vs week 2", "result": 170.21, "unit": "ng ZEN/g"},
      {"measurement": "difference in mean ZEN levels between ascending and descending colon", "setting": "[1]; week 6", "result": 109.55, "unit": "ng ZEN/g"},
      {"measurement": "difference in CYP1A1 gene expression between groups C and E", "setting": "[2]; ascending colon, week 4, p ≤ 0.01", "result": 0.98},
      {"measurement": "difference in CYP1A1 gene expression between groups C and E", "setting": "[2]; ascending colon, week 5, p ≤ 0.01", "result": 1.16},
      {"measurement": "difference in CYP1A1 gene expression between groups C and E", "setting": "[2]; descending colon, week 1, higher in group C, p ≤ 0.01", "result": 0.41},
      {"measurement": "difference in CYP1A1 gene expression between groups C and E", "setting": "[2]; descending colon, week 2, higher in group C, p ≤ 0.05", "result": 0.14},
      {"measurement": "difference in CYP1A1 gene expression between groups C and E", "setting": "[2]; descending colon, week 3, higher in group E, p ≤ 0.05", "result": 0.13},
      {"measurement": "difference in CYP1A1 gene expression between groups C and E", "setting": "[2]; descending colon, week 5, higher in group C, p ≤ 0.05", "result": 0.24},
      {"measurement": "mean CYP1A1 gene expression during the entire experiment (expression ratio vs control at start = 1.00)", "setting": "[2]; ascending colon, group C 0.99", "result": 0.73},
      {"measurement": "mean CYP1A1 gene expression during the entire experiment (expression ratio vs control at start = 1.00)", "setting": "[2]; descending colon, group C 0.57", "result": 0.43},
      {"measurement": "difference in GSTπ1 gene expression between groups C and E", "setting": "[3]; ascending colon, week 1, higher in group C", "result": 0.35},
      {"measurement": "difference in GSTπ1 gene expression between groups C and E", "setting": "[3]; descending colon, week 2, lower in group E", "result": 0.27},
      {"measurement": "difference in GSTπ1 gene expression between groups C and E", "setting": "[3]; descending colon, week 6, lower in group E", "result": 0.34},
      {"measurement": "average expression of the GSTπ1 gene during the entire experiment (expression ratio vs control at start = 1.00)", "setting": "[3]; ascending colon, group C 0.96", "result": 0.39},
      {"measurement": "average expression of the GSTπ1 gene during the entire experiment (expression ratio vs control at start = 1.00)", "setting": "[3]; descending colon, group C 1.07", "result": 0.94},
      {"measurement": "clinical signs of zearalenone mycotoxicosis", "setting": "[4]", "result": "No clinical signs"},
      {"measurement": "solubility in fats and alkaline aqueous solutions", "setting": "[5]; fats and alkaline aqueous solutions", "result": "soluble in fats and alkaline aqueous solutions"},
      {"measurement": "solubility in water", "setting": "[5]; water", "result": "almost insoluble in water"},
      {"measurement": "no-observed-adverse-effect level (NOAEL)", "setting": "[6]", "result": 40, "unit": "μg ZEN/kg BW"}
    ]}
  ]
}
